Measurements reported in US12097215B2, “Antibacterial composition and its use in treating bacterial infections” (Vector Vitale IP LLC, priority 2017, dated 2024).
≈ marks a conversion by molar mass, not a printed value. Read-outs that look alike come from different tables or passages of the source. Marks after values point to notes of the source that are not given here.

Columns and labels:
[1] = tested on: S. aureus ATCC 25923; experiment: MIC by serial dilutions in broth (visible growth); assay type: cell-based; conditions: for MIC: concentration of ^64Zne, Tables 1-5;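 as to all read-outs here: broth tubes inoculated at about 5×10^5 CFU/ml, incubated 16-24 h at 35 °C in air, growth judged by transmitted light against an unexposed refrigerated inoculum tube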
Protocol: (§3) The minimum inhibitory concentration (MIC) and minimum bactericidal concentration (MBC) of the antibacterial composition enriched for the light isotope zinc ^64Zne was evaluated in the experiment. […] S. aureus ATCC 25923, E. coli ATCC 25922 and P. aeruginosa ATCC 27853 were used as test cultures.
(§4) The studies were carried out using the method of serial dilutions in broth. To determine sensitivity of microorganisms to the antibacterial composition, 0.5 ml of broth was placed into each tube. The number of tubes was determined based on the desired number of dilutions and was increased by one for the “negative” control (no test composition). Series of two-fold serial dilutions of the test variants of the antibacterial composition were used and concentrations ranging from 450 mcg ^64Zne/ml to 0.000107 mcg ^64Zne/ml were obtained.
(§5) Reference test strains of S. aureus ATCC 25923, E. coli ATCC 25922 and P. aeruginosa ATCC 27853 were incubated in Mueller-Hinton liquid broth at 37° C. for 24 hours. Standard bacterial suspension equivalent to 0.5 McFarland standard diluted 100-fold with the broth was used for the inoculation of the tubes after which the concentration of microorganism in it was approximately 10^6 CFU/ml.
(§6) 0.5 ml of inoculum was added to each tube containing 0.5 ml of the appropriate dilution of a solution of the ^64Zn-enriched salt of interest. […] The final concentration of the microorganism in each tube was approximately 5×10^5 CFU/ml.
(§7) The tubes were incubated at 35° C. in air for 16-20 or 20-24 hours (depending on the bacterial strain).
(§8) To determine the presence of microorganism growth the test tubes with inoculum were viewed under transmitted light. Transmitted light was measured by spectrophotometry. The growth of culture in the presence of antibacterial compositions based on ^64Zne was compared with the reference test tube (“negative” control), containing the original inoculum and stored in the refrigerator. The MIC was determined as the lowest concentration of ^64Zne that inhibits visible growth of the microorganism. Both gram-positive (S. aureus) and gram-negative bacteria (P. aeruginosa, E. coli) were used in the experiments described below.
(§9) That is, ^64Zne in the form of a salt was compared with a composition that contains zinc with a natural distribution of isotopes. […] Relevant samples containing salt of natural zinc with EDDA and natural zinc sulfate were used for the comparison.
(§10) The following commercial antibacterial medications were used for the study: azithromycin and ceftriaxone and norfloxacin. The initial concentration of 3000 mcg/ml was used for the samples of all the above compounds. […] Serial dilutions of the above antibacterial compounds were also prepared in the same way as for the antibacterial composition of the invention. The same pathogenic strains of S. aureus ATCC 25923, E. coli ATCC 25922, P. aeruginosa ATCC 27853 were used for the study.

[2] = tested on: E. coli ATCC 25922; experiment: MIC by serial dilutions in broth (visible growth); assay type: cell-based; conditions: for MIC: concentration of ^64Zne, Tables 1-5;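 as to all read-outs here: broth tubes inoculated to about 5×10^5 CFU/ml, incubated at 35 °C for 16-24 h, growth judged by transmitted light versus an untreated inoculum reference tube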
Protocol: as §3, §4, §5, §6, §7, §8, §9, §10

[3] = tested on: P. aeruginosa ATCC 27853; experiment: MIC by serial dilutions in broth (visible growth)
Protocol: as §3, §4, §5, §6, §7, §8, §9, §10

[4] = tested on: E. coli ATCC 25922; experiment: MBC by plating tube contents on Mueller-Hinton medium; assay type: cell-based; conditions: Table 6
Protocol: (§1) To evaluate the bactericidal action of the antibacterial composition based on light isotope ^64Zne the minimum bactericidal concentration (MBC) was determined by plating out 0.1 ml of the contents of each tube containing the antibacterial composition on Mueller-Hinton medium. The incubation was at 37° C. for 24 h.
(§2) The MBC of the test samples was determined as the lowest concentration at which there was no growth on Mueller-Hinton agar medium.

[5] = tested on: P. aeruginosa ATCC 27853; experiment: as above; assay type: cell-based; conditions: for MBC: Table 6
Protocol: as §1, §2

[6] = tested on: S. aureus ATCC 25923; experiment: as above; assay type: cell-based; conditions: Table 6
Protocol: as §1, §2

[7] = concentration of ^64Zne, Tables 1-5

NC(CC(=O)O)C(=O)O (stereo not drawn) [^64Zne aspartate]
MIC ([1]; Staphylococcus aureus, ATCC25923, read-out: MIC): 0.0057 µg/mL (≈ 0.0428 µM) | visible growth ([1]; ^64Zne 0.00018 mcg/ml): + | visible growth ([1]; ^64Zne 0.00036 mcg/ml): + | visible growth ([1]; ^64Zne 0.00072 mcg/ml): + | visible growth ([1]; ^64Zne 0.0014 mcg/ml): + | visible growth ([1]; ^64Zne 0.0029 mcg/ml): + | visible growth ([1]; ^64Zne 0.0057 mcg/ml): − | visible growth ([1]; ^64Zne 0.011 mcg/ml): − | visible growth ([1]; ^64Zne 0.023 mcg/ml): − | visible growth ([1]; ^64Zne 0.046 mcg/ml): − | visible growth ([1]; ^64Zne 0.092 mcg/ml): − | visible growth ([1]; ^64Zne 0.18 mcg/ml): − | visible growth ([1]; ^64Zne 0.37 mcg/ml): − | visible growth ([1]; ^64Zne 0.73 mcg/ml): − | visible growth ([1]; ^64Zne 1.46 mcg/ml): − | visible growth ([1]; ^64Zne 2.93 mcg/ml): − | visible growth ([1]; ^64Zne 5.86 mcg/ml): − | visible growth ([1]; ^64Zne 11.72 mcg/ml): − | visible growth ([1]; ^64Zne 23.44 mcg/ml): − | visible growth ([1]; ^64Zne 46.88 mcg/ml): − | visible growth ([1]; ^64Zne 93.75 mcg/ml): − | visible growth ([1]; ^64Zne 187.5 mcg/ml): − | visible growth ([1]; ^64Zne 375 mcg/ml): − | MIC ([2]; Escherichia coli, ATCC25922, read-out: MIC): 0.0229 µg/mL (≈ 0.172 µM) | visible growth ([2]; ^64Zne 0.00018 mcg/ml): + | visible growth ([2]; ^64Zne 0.00036 mcg/ml): + | visible growth ([2]; ^64Zne 0.00072 mcg/ml): + | visible growth ([2]; ^64Zne 0.0014 mcg/ml): + | visible growth ([2]; ^64Zne 0.0029 mcg/ml): + | visible growth ([2]; ^64Zne 0.0057 mcg/ml): + | visible growth ([2]; ^64Zne 0.011 mcg/ml): + | visible growth ([2]; ^64Zne 0.023 mcg/ml): − | visible growth ([2]; ^64Zne 0.046 mcg/ml): − | visible growth ([2]; ^64Zne 0.092 mcg/ml): − | visible growth ([2]; ^64Zne 0.18 mcg/ml): − | visible growth ([2]; ^64Zne 0.37 mcg/ml): − | visible growth ([2]; ^64Zne 0.73 mcg/ml): − | visible growth ([2]; ^64Zne 1.46 mcg/ml): − | visible growth ([2]; ^64Zne 2.93 mcg/ml): − | visible growth ([2]; ^64Zne 5.86 mcg/ml): − | visible growth ([2]; ^64Zne 11.72 mcg/ml): − | visible growth ([2]; ^64Zne 23.44 mcg/ml): − | visible growth ([2]; ^64Zne 46.88 mcg/ml): − | visible growth ([2]; ^64Zne 93.75 mcg/ml): − | visible growth ([2]; ^64Zne 187.5 mcg/ml): − | visible growth ([2]; ^64Zne 375 mcg/ml): − | visible growth ([2]; ^64Zne 750 mcg/ml): − | bacteriostatic activity (in words) [3]: best results | MIC ([3]; Pseudomonas aeruginosa, ATCC27853): 0.732 µg/mL (≈ 5.5 µM)

O=C([O-])CC(O)(CC(=O)[O-])C(=O)[O-].O=C([O-])CC(O)(CC(=O)[O-])C(=O)[O-].[Zn+2].[Zn+2].[Zn+2] [^64Zne citrate]
visible growth ([1]; ^64Zne 0.00011 mcg/ml): + | visible growth ([1]; ^64Zne 0.00022 mcg/ml): + | visible growth ([1]; ^64Zne 0.00043 mcg/ml): + | visible growth ([1]; ^64Zne 0.00086 mcg/ml): + | visible growth ([1]; ^64Zne 0.0017 mcg/ml): + | visible growth ([1]; ^64Zne 0.0034 mcg/ml): + | visible growth ([1]; ^64Zne 0.0069 mcg/ml): + | visible growth ([1]; ^64Zne 0.014 mcg/ml): + | visible growth ([1]; ^64Zne 0.027 mcg/ml): − | visible growth ([1]; ^64Zne 0.055 mcg/ml): − | visible growth ([1]; ^64Zne 0.11 mcg/ml): − | visible growth ([1]; ^64Zne 0.22 mcg/ml): − | visible growth ([1]; ^64Zne 0.44 mcg/ml): − | visible growth ([1]; ^64Zne 0.88 mcg/ml): − | visible growth ([1]; ^64Zne 1.76 mcg/ml): − | visible growth ([1]; ^64Zne 3.52 mcg/ml): − | visible growth ([1]; ^64Zne 7.03 mcg/ml): − | visible growth ([1]; ^64Zne 14.06 mcg/ml): − | visible growth ([1]; ^64Zne 28.13 mcg/ml): − | visible growth ([1]; ^64Zne 56.25 mcg/ml): − | visible growth ([1]; ^64Zne 112.5 mcg/ml): − | visible growth ([1]; ^64Zne 225 mcg/ml): − | MIC [1]: 0.0275 µg/mL | visible growth ([2]; ^64Zne 0.00011 mcg/ml): + | visible growth ([2]; ^64Zne 0.00022 mcg/ml): + | visible growth ([2]; ^64Zne 0.00043 mcg/ml): + | visible growth ([2]; ^64Zne 0.00086 mcg/ml): + | visible growth ([2]; ^64Zne 0.0017 mcg/ml): + | visible growth ([2]; ^64Zne 0.0034 mcg/ml): + | visible growth ([2]; ^64Zne 0.0069 mcg/ml): + | visible growth ([2]; ^64Zne 0.014 mcg/ml): + | visible growth ([2]; ^64Zne 0.027 mcg/ml): − | visible growth ([2]; ^64Zne 0.055 mcg/ml): − | visible growth ([2]; ^64Zne 0.11 mcg/ml): − | visible growth ([2]; ^64Zne 0.22 mcg/ml): − | visible growth ([2]; ^64Zne 0.44 mcg/ml): − | visible growth ([2]; ^64Zne 0.88 mcg/ml): − | visible growth ([2]; ^64Zne 1.76 mcg/ml): − | visible growth ([2]; ^64Zne 3.52 mcg/ml): − | visible growth ([2]; ^64Zne 7.03 mcg/ml): − | visible growth ([2]; ^64Zne 14.06 mcg/ml): − | visible growth ([2]; ^64Zne 28.13 mcg/ml): − | visible growth ([2]; ^64Zne 56.25 mcg/ml): − | visible growth ([2]; ^64Zne 112.5 mcg/ml): − | visible growth ([2]; ^64Zne 225 mcg/ml): − | visible growth ([2]; ^64Zne 450 mcg/ml): − | MIC [2]: 0.0275 µg/mL | MBC [4]: 0.44* mcg ^64Zne/ml | bactericidal activity (in words) [5]: satisfactory bactericidal activity | MBC [5]: 112.5 mcg ^64Zne/ml | MBC [6]: 0.028* mcg ^64Zne/ml | MIC [3, 7]: 14.062 µg/mL

NC(CCC(=O)[O-])C(=O)[O-].[64Zn+2] (stereo not drawn) [^64Zne glutamate]
visible growth ([1]; ^64Zne 0.00018 mcg/ml): + | visible growth ([1]; ^64Zne 0.00036 mcg/ml): + | visible growth ([1]; ^64Zne 0.00072 mcg/ml): + | visible growth ([1]; ^64Zne 0.0014 mcg/ml): + | visible growth ([1]; ^64Zne 0.0029 mcg/ml): + | visible growth ([1]; ^64Zne 0.0057 mcg/ml): + | visible growth ([1]; ^64Zne 0.011 mcg/ml): + | visible growth ([1]; ^64Zne 0.023 mcg/ml): + | visible growth ([1]; ^64Zne 0.046 mcg/ml): − | visible growth ([1]; ^64Zne 0.092 mcg/ml): − | visible growth ([1]; ^64Zne 0.18 mcg/ml): − | visible growth ([1]; ^64Zne 0.37 mcg/ml): − | visible growth ([1]; ^64Zne 0.73 mcg/ml): − | visible growth ([1]; ^64Zne 1.46 mcg/ml): − | visible growth ([1]; ^64Zne 2.93 mcg/ml): − | visible growth ([1]; ^64Zne 5.86 mcg/ml): − | visible growth ([1]; ^64Zne 11.72 mcg/ml): − | visible growth ([1]; ^64Zne 23.44 mcg/ml): − | visible growth ([1]; ^64Zne 46.88 mcg/ml): − | visible growth ([1]; ^64Zne 93.75 mcg/ml): − | visible growth ([1]; ^64Zne 187.5 mcg/ml): − | visible growth ([1]; ^64Zne 375 mcg/ml): − | MIC [1]: 0.0458 µg/mL | visible growth ([2]; ^64Zne 0.00018 mcg/ml): + | visible growth ([2]; ^64Zne 0.00036 mcg/ml): + | visible growth ([2]; ^64Zne 0.00072 mcg/ml): + | visible growth ([2]; ^64Zne 0.0014 mcg/ml): + | visible growth ([2]; ^64Zne 0.0029 mcg/ml): + | visible growth ([2]; ^64Zne 0.0057 mcg/ml): − | visible growth ([2]; ^64Zne 0.011 mcg/ml): − | visible growth ([2]; ^64Zne 0.023 mcg/ml): − | visible growth ([2]; ^64Zne 0.046 mcg/ml): − | visible growth ([2]; ^64Zne 0.092 mcg/ml): − | visible growth ([2]; ^64Zne 0.18 mcg/ml): − | visible growth ([2]; ^64Zne 0.37 mcg/ml): − | visible growth ([2]; ^64Zne 0.73 mcg/ml): − | visible growth ([2]; ^64Zne 1.46 mcg/ml): − | visible growth ([2]; ^64Zne 2.93 mcg/ml): − | visible growth ([2]; ^64Zne 5.86 mcg/ml): − | visible growth ([2]; ^64Zne 11.72 mcg/ml): − | visible growth ([2]; ^64Zne 23.44 mcg/ml): − | visible growth ([2]; ^64Zne 46.88 mcg/ml): − | visible growth ([2]; ^64Zne 93.75 mcg/ml): − | visible growth ([2]; ^64Zne 187.5 mcg/ml): − | visible growth ([2]; ^64Zne 375 mcg/ml): − | visible growth ([2]; ^64Zne 750 mcg/ml): − | MIC [2]: 0.0057 µg/mL | MBC [4]: 0.37* mcg ^64Zne/ml | MBC [5]: >750 mcg ^64Zne/ml | MBC [6]: 0.046* mcg ^64Zne/ml | bacteriostatic activity (in words) [3]: best results | MIC [3, 7]: 0.183 µg/mL
